Counter-ions that a name gives are not always drawn.
molecular target: T1, SMO (Mus musculus, UniProt P56726); assay: Smoothened (SMO)/Sonic Hedgehog (SHh) Transient Transcriptional Activation Assay (Gli-luciferase reporter in C3H10T1/2 cells); type: cell-based, murine; details: 2 uM test compound, SHh 250 ng/ml, 20 hrs
T1 construct: endogenous in cells; host or cells: C3H10T1/2 (ATCC #CCL-226)
Outline: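 Luminescence (Dual-Glo) measured after 20 h co-exposure at 37 °C to 250 ng/ml human SHh and compound at 2 uM down to 2 nM final. Cells were C3H10T1/2 carrying a transfected murine 10× Gli response-element luciferase construct with pEGFP, starved 20 h in 0.5% calf serum beforehand.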

T1 sequence (P56726 33-793): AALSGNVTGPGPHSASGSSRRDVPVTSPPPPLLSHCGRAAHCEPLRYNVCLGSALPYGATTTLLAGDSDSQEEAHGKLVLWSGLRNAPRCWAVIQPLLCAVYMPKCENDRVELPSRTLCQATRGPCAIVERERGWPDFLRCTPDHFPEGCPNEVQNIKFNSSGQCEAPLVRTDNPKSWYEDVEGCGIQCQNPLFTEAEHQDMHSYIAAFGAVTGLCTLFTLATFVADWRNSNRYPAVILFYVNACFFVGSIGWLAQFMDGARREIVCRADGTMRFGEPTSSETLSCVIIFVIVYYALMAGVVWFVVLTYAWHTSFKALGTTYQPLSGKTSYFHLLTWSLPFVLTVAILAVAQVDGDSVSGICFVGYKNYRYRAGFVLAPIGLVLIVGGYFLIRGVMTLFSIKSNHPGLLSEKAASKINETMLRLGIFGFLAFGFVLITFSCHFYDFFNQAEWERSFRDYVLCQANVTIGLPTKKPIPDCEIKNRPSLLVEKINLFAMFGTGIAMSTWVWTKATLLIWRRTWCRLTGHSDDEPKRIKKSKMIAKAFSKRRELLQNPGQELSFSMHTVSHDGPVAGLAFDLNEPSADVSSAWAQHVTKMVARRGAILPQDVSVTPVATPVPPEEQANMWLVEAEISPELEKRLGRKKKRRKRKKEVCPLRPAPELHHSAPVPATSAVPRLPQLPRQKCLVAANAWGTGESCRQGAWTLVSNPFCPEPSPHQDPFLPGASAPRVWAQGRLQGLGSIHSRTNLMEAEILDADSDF

First: N-(3-(1,5-Dimethyl-1H-benzo[d]imidazol-2-yl)cyclohexyl]-3,5-dimethoxybenzamide and N-(3-(1,6-dimethyl-1H-benzo[d]imidazol-2-yl)cyclohexyl]-3,5-dimethoxybenzamide [Example 22]
Second: N-(3-(1-Methyl-6-(morpholinomethyl)-1H-benzo[d]imidazol-2-yl]cyclohexyl)-2,3-dihydrobenzo[b][1,4]dioxine-6-carboxamide and N-(3-(1-Methyl-5-(morpholinomethyl)-1H-benzo[d]imidazol-2-yl]cyclohexyl)-2,3-dihydrobenzo[b][1,4]dioxine-6-carboxamide [Example 37]
The “SMO % inhibition at 2 uM” value of the first is higher: 98% for the first, 88% for the second.

First: N-(3-(5-(Aminomethyl)-1-methyl-1H-benzo[d]imidazol-2-yl)cyclohexyl)-3,5-dimethoxybenzamide and N-(3-(6-(aminomethyl)-1-methyl-1H-benzo[d]imidazol-2-yl)cyclohexyl)-3,5-dimethoxybenzamide [Example 23]
Second: N-(3-(5-Bromo-1-methyl-1H-benzo[d]imidazol-2-yl)cyclohexyl)-3,5-dimethoxybenzamide and N-(3-(6-bromo-1-methyl-1H-benzo[d]imidazol-2-yl)cyclohexyl)-3,5-dimethoxybenzamide [Example 18]
The “SMO % inhibition at 2 uM” value of the first is lower: 104% for the first, 107% for the second.

Going from “N-(3-(5-Cyano-1-methyl-1H-benzo[d]imidazol-2-yl)cyclohexyl]-2,3-dihydrobenzo[b][1,4]dioxine-6-carboxamide and N-(3-(6-Cyano-1-methyl-1H-benzo[d]imidazol-2-yl)cyclohexyl]-2,3-dihydrobenzo[b][1,4]dioxine-6-carboxamide [Example 20]” to “N-(3-(6-(2-Cyanopropan-2-yl)-1-methyl-1H-benzo[d]imidazol-2-yl)cyclohexyl)-2,3-dihydrobenzo[b)[1,4]dioxine-6-carboxamide and N-(3-(5-(2-cyanopropan-2-yl)-1-methyl-1H-benzo[d]imidazol-2-yl)cyclohexyl)-2,3-dihydrobenzo[b][1,4]dioxine-6-carboxamide [Example 36]”, the “SMO % inhibition at 2 uM” value falls from 103% to 93%.

Compared with “N-(3-(6-(2-Hydroxypropan-2-yl)-1-methyl-1H-benzo[d]imidazol-2-yl)cyclohexyl)-2,3-dihydrobenzo[b][1,4]dioxine-6-carboxamide and N-(3-(5-(2-Hydroxypropan-2-yl)-1-methyl-1H-benzo[d]imidazol-2-yl)cyclohexyl)-2,3-dihydrobenzo[b][1,4]dioxine-6-carboxamide [Example 31]”, “N-(3-(6-((2-Methoxyethylamino)methyl)-1-methyl-1H-benzo[d]imidazol-2-yl)cyclohexyl)-2,3-dihydrobenzo[b][1,4]dioxine-6-carboxamide and N-(3-(5-((2-methoxyethylamino)methyl)-1-methyl-1H-benzo[d]imidazol-2-yl)cyclohexyl)-2,3-dihydrobenzo[b][1,4]dioxine-6-carboxamide [Example 38]” is higher in “SMO % inhibition at 2 uM” value: 97% for the first, 103% for the second.

First: N-(3-(6-((Dimethylamino)methyl]-1-methyl-1H-benzo[d]imidazol-2-yl)cyclohexyl)-2,3-dihydrobenzo[b][1,4]dioxine-6-carboxamide and N-(3-(5-((Dimethylamino)methyl]-1-methyl-1H-benzo[d]imidazol-2-yl)cyclohexyl)-2,3-dihydrobenzo[b][1,4]dioxine-6-carboxamide [Example 34]
Second: N-(3-(6-(Cyanomethyl)-1-methyl-1H-benzo[d]imidazol-2-yl)cyclohexyl)-2,3-dihydrobenzo[b][1,4]dioxine-6-carboxamide and N-(3-(5-(Cyanomethyl)-1-methyl-1H-benzo[d]imidazol-2-yl)cyclohexyl)-2,3-dihydrobenzo[b][1,4]dioxine-6-carboxamide [Example 35]
The “SMO % inhibition at 2 uM” value of the first is lower: 96% for the first, 106% for the second.

Going from “N-(3-(6-(Hydroxymethyl)-1-methyl-1H-benzo[d]imidazol-2-yl)cyclohexyl)-2,3-dihydrobenzo[b][1,4]dioxine-6-carboxamide and N-(3-(5-(Hydroxymethyl)-1-methyl-1H-benzo[d]imidazol-2-yl)cyclohexyl)-2,3-dihydrobenzo[b][1,4]dioxine-6-carboxamide [Example 30]” to “N-(3-(6-(Methoxymethyl)-1-methyl-1H-benzo[d]imidazol-2-yl]cyclohexyl)-2,3-dihydrobenzo[b][1,4]dioxine-6-carboxamide and N-(3-(6-(Methoxymethyl)-1-methyl-1H-benzo[d]imidazol-2-yl]cyclohexyl)-2,3-dihydrobenzo[b][1,4]dioxine-6-carboxamide [Example 33]”, the “SMO % inhibition at 2 uM” value falls from 104% to 102%.

“N-(3-(6-Isopropyl-1-methyl-1H-benzo[d]imidazol-2-yl)cyclohexyl)-2,3-dihydrobenzo[b][1,4]dioxine-6-carboxamide and N-(3-(5-isopropyl-1-methyl-1H-benzo[d]imidazol-2-yl)cyclohexyl)-2,3-dihydrobenzo[b][1,4]dioxine-6-carboxamide [Example 32]” was tested, and the “SMO % inhibition at 2 uM” value was 81%.

same assay, conditions: C3H 10T1/2, 2 uM test compound, SHh 250 ng/ml, 20 hrs, read-out: SMO % inhibition at 2 uM

For `O=C(N[C@@H]1CCC[C@H](c2nc3ccccc3[nH]2)C1)c1ccc(Cl)nc1` [N-((1R,3S)-3-(1H-Benzo[d]imidazol-2-yl)cyclohexyl)-6-chloronicotinamide], the inhibition at 2 µM was 103%.

same assay, conditions: C3H 10T1/2, 2 μM test compound, SHh 250 ng/ml, 20 hrs, read-out: SMO CELL % INHIBITION @ 2 μM

First: COc1cc(OC)cc(C(=O)N[C@@H]2CCC[C@H](c3nc4cc(Cl)ccc4[nH]3)C2)c1 [Example 298, N-[(1R,3S)-3-(5-chloro-1H-benzimidazol-2-yl)cyclohexyl]-3,5-dimethoxybenz-amide (+)-tartrate]
Second: CN1C(=O)CCc2cc(C(=O)N[C@@H]3CCC[C@H](c4nc5cc(Cl)ccc5[nH]4)C3)ccc21 [Example 305, N-[(1R,3S)-3-(5-chloro-1H-benzimidazol-2-yl)cyclohexyl]-1-methyl-2-oxo-1,2,3,4-tetrahydroquino-line-6-carboxamide (+)-tartrate]
The inhibition at 2 µM of the first is higher: 104% for the first, 81.2% for the second.

Going from `O=C1COc2ccc(C(=O)N[C@@H]3CCC[C@H](c4nc5cc(Cl)ccc5[nH]4)C3)cc2N1` [Example 299, N-[(1R,3S)-3-(5-chloro-1H-benzimidazol-2-yl)cyclohexyl]-3-oxo-3,4-dihydro-2H-1,4-benzoxazine-6-carboxamide (+)-tartrate] to `CN1C(=O)COc2ccc(C(=O)N[C@@H]3CCC[C@H](c4nc5cc(Cl)ccc5[nH]4)C3)cc21` [Example 301, N-[(1R,3S)-3-(5-chloro-1H-benzimidazol-2-yl)cyclohexyl]-4-methyl-3-oxo-3,4-dihydro-2H-1,4-benzoxazine-6-carboxamide (+)-tartrate], the inhibition at 2 µM rises from 105% to 108%.

Going from `O=C1CCc2cc(C(=O)N[C@@H]3CCC[C@H](c4nc5cc(Cl)ccc5[nH]4)C3)ccc2N1` [Example 300, N-[(1R,3S)-3-(5-chloro-1H-benzimidazol-2-yl)cyclohexyl]-2-oxo-1,2,3,4-tetrahydroquino-line-6-carboxamide (+)-tartrate] to `CN1C(=O)CCc2cc(C(=O)N[C@@H]3CCC[C@H](c4nc5cc(C(F)(F)F)ccc5[nH]4)C3)ccc21` [Example 304, 1-methyl-2-oxo-N-[(1R,3S)-3-[5-(trifluoromethyl)-1H-benzimidazol-2-yl]cyclohexyl}-1,2,3,4-tetrahydroquin-oline-6-carboxamide (+)-tartrate], the inhibition at 2 µM rises from 106% to 111%.

First: [N-]=[N+]=Nc1c(F)c(F)c(C(=O)NC23CCCC(c4nc5cc(C(F)(F)F)ccc5[nH]4)(C2)C3)c(F)c1F [Example 302, 4-azido-2,3,5,6-tetrafluoro-N-{5-[5-(trifluoromethyl)-1H-benzimidazol-2-yl]bicyclo[3.1.1]hept-1-yl}benzamide]
Second: Cc1cc2c(cc1C(=O)NC13CCCC(c4nc5cc(C(F)(F)F)ccc5[nH]4)(C1)C3)OCCO2 [Example 306, 7-methyl-N-{5-[5-(trifluoromethyl)-1H-benzimidazol-2-yl]bicyclo[3.1.1]hept-1-yl}-2,3-dihydro-1,4-benzodioxine-6-carboxamide]
The inhibition at 2 µM of the first is lower: 97.1% for the first, 110% for the second.

Going from `O=C(N[C@@H]1CCC[C@H](c2nc3cc(C(F)(F)F)ccc3[nH]2)C1)c1ccc2c(c1)CNCC2` [Example 303, N-{(1R,3S)-3-[5-(trifluoromethyl)-1H-benzimidazol-2-yl]cyclohexyl}-1,2,3,4-tetrahydroiso-quinoline-7-carboxamide HCl] to `O=C(N[C@@H]1CCC[C@H](c2nc3ccccc3[nH]2)C1)c1ccc2c(c1)CNCC2` [Example 308, N-[(1R,3S)-3-(1H-benzimidazol-2-yl)cyclohexyl]-1,2,3,4-tetrahydroiso-quinoline-7-carboxamide HCl], the inhibition at 2 µM falls from 111% to 96.2%.

Going from `Cc1cc2c(cc1C(=O)N[C@@H]1CCC[C@H](c3nc4ccccc4[nH]3)C1)OCCO2` [Example 307, N-[(1R,3S)-3-(1H-benzimidazol-2-yl)cyclohexyl]-7-methyl-2,3-dihydro-1,4-benzodioxine-6-carboxamide] to `O=C(N[C@@H]1CCC[C@H](c2nc3ccccc3[nH]2)C1)c1ccc2c(c1)CCNC2` [Example 309, N-[(1R,3S)-3-(1H-benzimidazol-2-yl)cyclohexyl]-1,2,3,4-tetrahydroiso-quinoline-6-carboxamide HCl], the inhibition at 2 µM rises from 90.5% to 102%.

Going from `Cn1c([C@H]2CCC[C@@H](NC(=O)c3ccc4c(c3)CNCC4)C2)nc2ccccc21` [Example 310, N-[(1R,3S)-3-(1-methyl-1H-benzimidazol-2-yl)cyclohexyl]-1,2,3,4-tetrahydroiso-quinoline-7-carboxamide HCl] to `Cn1c([C@H]2CCC[C@@H](NC(=O)c3ccc4c(c3)CCNC4)C2)nc2ccccc21` [Example 311, N-[(1R,3S)-3-(1-methyl-1H-benzimidazol-2-yl)cyclohexyl]-1,2,3,4-tetrahydroiso-quinoline-6-carboxamide HCl], the inhibition at 2 µM rises from 91.6% to 100%.

Reference: patent publication US20100029615A1, “BENZIMIDAZOLE DERIVATIVES” (priority 2006, published 2010)
